The test system of assay [1] is Rab12 phosphorylation. The assay can be described thus: Rab12 phosphorylation in PC12 cells, Ion/TPA- or rotenone-treated (western blot). In kind it is cell-based. On the technique in general: A western blot detects proteins with antibodies after separation by electrophoresis.
Method: Cells that were incubated in the absence of rotenone were then left untreated or incubated with a combination of 1 μM 4-bromo-calcium ionophore A23187 (Ion) and 50 nM of the phorbol ester (TPA) for 30 minutes at 37° C. Cells were then washed three times with PBS, lysed with lysis buffer containing phosphatase inhibitors and cell lysates analysed by western blotting with anti phosphoRab12 antibodies followed by re-probing with anti GAPDH antibodies. […] The results are the fold increase in Rab12 phosphorylation based on the ratio of phosphorylated Rab12 to GAPDH.
Samples were separated by SDS-PAGE using 10-12% polyacrylamide gels and electrophoretically transferred to nitrocellulose membranes. Blots were blocked for 20 min in TBST (10 mM Tris-HCl, pH 8.0, 150 mM NaCl, and 0.05% Tween 20) containing 5% skim-milk, followed by overnight incubation at 4° C. with the desired primary Abs. Blots were washed three times and incubated for 1 hour at room temperature with HRP-conjugated secondary Ab. Immunoreactive bands were visualized by the ECL method according to standard procedures. The intensity of the immunoreactive bands was quantified using ImageJ software.
For Rab12 phosphorylation in PC12 cells, cells were grown for 48 hours either in growth medium or in medium supplemented with 1 μM LY333531 or 10 μM GSK2578215A in the absence or presence of 100 nM rotenone. For Ion/TPA-stimulated phosphorylation, cells grown in medium only or medium containing inhibitors, were stimulated with 1 μM 4-bromo-calcium ionophore A23187 (Ion) and 50 nM of the phorbol ester (TPA) for 30 minutes. Cells were processed as above.
In assay [2] the test system is Rab12 phosphorylation. The assay can be described thus: Rab12 phosphorylation in Ion/TPA-activated BMMCs with inhibitors (western blot). In kind it is cell-based, mouse. The following applies: 1 μM inhibitor, 30 min pre-incubation, then Ion/TPA 30 min. The procedure: BMMCs were seeded in 10 cm plates overnight in growth medium or medium containing 400 nM TPA. Next day cells were collected and washed three times with Tyrode's buffer in Eppendorf tubes. Cells were subsequently incubated for 30 minutes at 37° C. with vehicle (0.1% DMSO) or with 10 μM GSK2578215A (GSK), 1 μM Go6976, 2 mM EGTA or 1 μM MRT68921, as indicated. Cells were then left untreated (UT) or treated for additional 30 minutes at 37° C., with a combination of 1 μM 4-bromo-calcium ionophore A23187 (Ion) and 50 nM of the phorbol ester (TPA), in the absence or presence of the inhibitors. Cells were then washed three times with PBS, lysed with lysis buffer containing phosphatase inhibitors and cell lysates analysed by western blotting with anti phosphoRab12 antibodies followed by reprobing with anti Rab12 antibodies. A representative blot is shown.
The results are the relative ratio of phosphorylated to total Rab12. […]
Samples were separated by SDS-PAGE using 10-12% polyacrylamide gels and electrophoretically transferred to nitrocellulose membranes. […] The intensity of the immunoreactive bands was quantified using ImageJ software.
Cells (RBL, BMMCs or SH-SY5Y) were grown overnight in growth medium or medium containing 400 nM TPA, where indicated. […] Cells were then washed with PBS and lysed for 30 minutes in lysis buffer D. Cell lysates were analyzed by western blotting. […]

Assay [3] has as its target T1, Rab12 interaction with RILP (Mus musculus, UniProt Q5ND29).
T1 construct: made in house
T1 sequence (Q5ND29 1-369): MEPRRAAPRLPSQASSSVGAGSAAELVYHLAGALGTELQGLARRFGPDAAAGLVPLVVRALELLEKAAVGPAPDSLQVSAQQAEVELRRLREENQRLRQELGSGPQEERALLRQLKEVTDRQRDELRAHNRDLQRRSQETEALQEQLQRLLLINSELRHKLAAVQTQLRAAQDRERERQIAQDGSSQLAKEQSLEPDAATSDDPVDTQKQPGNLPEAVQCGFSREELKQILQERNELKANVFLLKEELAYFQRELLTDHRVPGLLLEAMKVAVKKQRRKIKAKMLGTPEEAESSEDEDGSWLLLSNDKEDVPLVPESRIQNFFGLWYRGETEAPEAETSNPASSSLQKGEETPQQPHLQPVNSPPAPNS
Briefly: Peptide inhibition of Rab12 pulldown by GST-RILP from RBL cell lysates. In kind it is binding, rat. The conditions noted are these: 100 μM peptide, 4 h at 4° C., then RBL cell lysate overnight. The method, then: At the end of the incubation period, beads were sedimented by centrifugation at 5000×g for 5 min at 4° C., washed four times with 50 mM Hepes pH 7.4, 150 mM NaCl, 1 mM MgCl2, 0.2% Triton X-100, protease inhibitor mixture, 1 mM PMSF, 2 mM Na3VO4, 10 mM NaPPi and 80 mM β-glycerophosphate and suspended in 1× sample buffer and boiled for 7 minutes. Proteins were resolved by SDS-PAGE and analyzed by immunoblotting with anti Rab12 antibodies. […] The results are the average pulldown±SEM derived from two independent experiments.
Pulldown assays were performed as previously described 2. Briefly, 20 μg of GST fusion proteins or control GST immobilized on Glutathione Agarose beads were incubated for 18 hours at 4° C. with RBL cell lysates (500 μg) prepared in buffer C (50 mM Hepes pH 7.4, 150 mM NaCl, 1 mM MgCl2, 1% TritonX100, 1 mM PMSF, protease inhibitor mixture, 2 mM Na3VO4) in the presence of 0.5 mM GTPγS. At the end of the incubation period, beads were sedimented by centrifugation at 5000×g for 5 minutes at 4° C., washed 4 times in buffer C with 0.2% TritonX100, and finally suspended in sample buffer, boiled for 7 minutes, and subjected to SDS-PAGE and immunoblotting. […]

A further assay deals with PC12 cells. Briefly: SG distribution, cell morphology and primary cilia in PC12 cells expressing CA Rab12 (confocal microscopy). The format is cell-based. The method, then: Cells (4×10^4 cells/well) were seeded onto 12 mm round glass coverslips in a 24-well plate. Next day, cells were transiently co-transfected using lipofectamine 2000 with 500 ng of plasmid encoding NPY-mRFP and 1000 ng of pEGFP-C1-Rab12(Q100L), a GTP-locked, constitutively active mutant of Rab12 (herein: CA Rab12). After transfection, cells were either left untreated (UT) or incubated for 48 hours at 37° C. with 100 nM rotenone. After 48 hours, cells were incubated for an additional hour at 37° C. with or without 100 μM of TAT-125 peptide (i.e. […], SEQ ID NO: 14), as indicated. Cells were then fixed and immunostained with polyclonal antibodies directed against Arl13b (primary cilium marker), followed by Hilyte Plus 647-conjugated goat anti-rabbit IgG. Cells were visualized by confocal microscopy. The right panels are the overlap of the confocal images on the corresponding brightfield.
RBL cells (4×10^5 cells/well) or PC12 cells (4×10^4 cells/well) were grown on 12-mm round glass coverslips, washed three times with PBS, and fixed for 20 min at room temperature with 4% paraformaldehyde in PBS. […] After washing, the cells were mounted (Golden Bridge Life Science, Mukilteo City, WA) and analyzed using a LEICA SP8 STED high resolution laser scanning confocal microscope (Leica, Wetzlar, Germany) using a 63 oil/1.4 numerical aperture objective. […]

For assay [4], the target named is T2, endogenous Rab12 of RBL cells (rat, UniProt P35284 49-291, limits assumed).
T2 construct: Total Rab12 pulled down from cell lysates (blot reprobed with anti-Rab12)
T2 sequence (looked up): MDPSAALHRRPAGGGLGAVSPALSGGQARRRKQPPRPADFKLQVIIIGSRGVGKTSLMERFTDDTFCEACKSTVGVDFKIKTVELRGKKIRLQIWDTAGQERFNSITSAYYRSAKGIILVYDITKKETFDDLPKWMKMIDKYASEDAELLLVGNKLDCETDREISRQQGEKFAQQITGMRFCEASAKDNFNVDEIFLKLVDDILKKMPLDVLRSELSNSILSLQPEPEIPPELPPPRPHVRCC
The assay can be described thus: GST pulldown of endogenous Rab12 from resting RBL cell lysates, anti-Rab12 immunoblot. The procedure: Cells were then lysed and 500 μg of cell lysate were incubated overnight at 4° C. with either GST, GST-RILP, GST-RILP-L1 or GST-RILP-L2, immobilized on glutathione agarose beads, as indicated. At the end of the incubation period, beads were sedimented by centrifugation at 5000×g for 5 minutes at 4° C., washed four times with buffer containing 50 mM Hepes pH 7.4, 150 mM NaCl, 1 mM MgCl₂, 0.2% Triton X-100, protease inhibitor mixture, 1 mM PMSF, 2 mM Na₃VO₄, 10 mM NaPPi and 80 mM β-glycerophosphate and suspended in 1× sample buffer and boiled for 7 minutes. Proteins were resolved by SDS-PAGE and analyzed by immunoblotting with the anti-phosphoRab12 antibodies, followed by reprobing with anti Rab12 antibodies, as indicated. Representative blots are shown. Similar results were obtained in two separate experiments.
Next, it was assessed whether […] any impact on Rab12 interactions with its RILP family effectors. To this end, lysates derived from resting RBL cells or RBL cells that were triggered with either IgE/Ag or Ion/TPA, were subjected to pulldown assays by chimeric proteins consisting of GST-fused to either RILP, RILP-L1, or RILP-L2, or control GST. […] Therefore, under these conditions, the efficacy of Rab12-effector interactions was RILP-L1>RILP>>>RILP-L2.

Entries after “also recorded” stand apart in the source; their conditions may differ.

For the molecule `O=C(Nc1cccnc1)c1cc(-c2ccnc(F)c2)ccc1OCc1ccccc1` [GSK2578215A], in the assay on Rab12 phosphorylation [1] (100 nM rotenone 48 h with 1 μM LY333531 or 10 μM GSK2578215A), the “rotenone-induced phosphorylation of Rab12” value was “significantly inhibited”. Moreover, in the assay on Rab12 phosphorylation [1] (1 μM LY333531 or 10 μM GSK2578215A 48 h, Ion/TPA 30 min), the “Ion/TPA-induced phosphorylation of Rab12” value is “resistant”.
Turning to `Cn1c2ccccc2c2c3c(c4c5ccccc5n(CCC#N)c4c21)CNC3=O` [Go6976], the “Ion/TPA-stimulated phosphorylation of Rab12” value in the assay with Rab12 phosphorylation [2] is listed as “significantly inhibited”.
On the same count and under the same terms, the same measure for `CN1CCc2cc(Nc3ncc(C4CC4)c(NCCCNC(=O)C4CCC4)n3)ccc2C1` [MRT68921]: “significantly inhibited”.
In the case of `C=C(C)[C@H]1Cc2c(ccc3c2O[C@@H]2COc4cc(OC)c(OC)cc4[C@@H]2C3=O)O1` [rotenone], the “induction of Rab12 phosphorylation” value with Rab12 phosphorylation [1] (Ion/TPA 30 min or 100 nM rotenone 48 h) is given as “induced”.
Take “EACKSTVGVDFKIKT [peptide Rab125, human Rab12 residues 69-83]”: the “pulldown of Rab12 by GST-RILP” value in assay [3] is on record as “could inhibit”.
As for “ERFNSITSAYYRSAK [peptide Rab121, human Rab12 residues 102-116]”, the “pulldown of Rab12 by GST-RILP” value in assay [3] was “could inhibit”.
With “YGRKKRRQRRRGGEACKSTVGVDFKIKT [TAT-125, cell permeable version of peptide 125]”, in the assay on PC12 cells (PC12 cells expressing CA Rab12 and NPY-mRFP, 100 μM TAT-125), the “cellular distribution of the SGs (Rab12-RILP interaction in intact cells)” value is listed as “partial scattering of the clustered SGs”. Also, the “cell morphology and primary cilia of rotenone treated cells” value in the assay with PC12 cells (PC12 cells, 100 nM rotenone 48 h, then 100 μM TAT-125) was “improves the cell morphology; also recorded: regained their normal appearance and size”.

B1: GST-RILP-L1 (pGEX-4T-3-RILP-L1) (other, mouse, UniProt Q9JJC6 1-406, looked up)
chain: MEEPLGSPPAALSALEKNVAELTVMDVYDIASLVGHEFERVIDQHGCESIARLMPKVVRVLEILEVLVSRHHVAPELDELRLELDRLRVERMDRIEKERKHQKELELVEDVWRGEAQDLLSQIAQLQEENKQLMTNLNHKDVGFSEEEFQKQEGMSERERQVMKRLKEVVDKQRDELRAKDRELGLKNEDVEALQQQQTRLMKINHDLRHRVTVVEAQGKALIEQKVELEADLQTKEQEMGSLRAELGKLRERLQGEHSQNGEEEEAEIQPQPDGEESISDAEKAALDLKDPNRPRFTLQELRDVLHERNELKSKVFLLQEELAYYKSEEIEEENRIPQPPPITHPRTSPQPESGIKRLFSFFSRDKKRLANTQRPTHIHESFGQWAITQRDDGYTEQGQEALQHL
notes: Immobilized on glutathione agarose beads; not shown: glutathione S-transferase (GST) encoded by the pGEX-4T-3 vector
As for B1, in assay [4], the “fold pulldown efficacy against GST-RILP” value was found to be 3 fold and the “fold pulldown efficacy against GST-RILP-L2” value was 9 fold.

The record behind these values is patent US20230374068A1, “COMPOSITIONS AND METHODS FOR TREATING A DISEASE” (RAMOT AT TEL AVIV UNIVERSITY LTD., priority 2021, published 2023).
